# Measured values: patent US20140199714A1, “METHOD FOR DETECTING CANCER CELLS METASTASIZING INTO SENTINEL LYMPH NODE” (SHINSHU UNIVERSITY, priority 2008, published 2014)
# Key:
# Assay type in all cases: cell-based
# [1] = test system: ICAM-1 mRNA in human LECs; assay: Quantitative RT-PCR of ICAM-1 mRNA in human LECs
# Protocol: The 0 hr., 1 hr., 4 hrs. and 18 hrs. expressions of ICAM-1 mRNA were evaluated by quantitative reverse transcription polymerase chain reaction (RT-PCR) for ICAM-1 cDNA. The total RNA was extracted from the cultured human LECs using ISOGEN reagent (available from Nippon Gene Co., Ltd., Japan) according to the manufacturer's instructions. The concentration of each RNA was calculated using 260 nm absorbance with a spectrophotometer. The extracted RNA was reverse-transcribed with M-MLV reverse transcriptase (available from Ambion Inc., US). For RT-PCR analysis, each superscript first-strand synthesis kit (available from Invitrogen Corporation, US) was used with 1.0 μg of the total RNA. Forward and reverse primers of ICAM-1 and cyclophilin A were used for each specific probe, respectively as follows; ICAM-1 (available from TAKARA BIO INC., Japan), and cyclophilin A:
# The cDNA was diluted 5-fold prior to PCR amplification. Quantitative RT-PCR was performed using a LIGHT CYCLER rapid thermal cycler system (available from Roche Diagnostics Limited, UK). Reactions were performed in a 20 μL volume with 0.5 μM primers, TAQ DNA POLYMERASE, and the buffer was included in the SYBR PREMIX EX TAQ (available from TAKARA BIO INC., Japan; SYBR is a registered trademark). The PCR protocol included 10 secs. of denaturation step followed by 45 cycles of 95° C. denaturation for 5 secs. and 60° C. annealing for 20 secs. The fluorescent product was detected at the end of the 72° C. extension period. Negative controls included PCR reactions with cDNA omitted. To confirm amplification specificity, PCR products from each primer pair were subjected to melting curve analysis. Quantification data was analyzed with LIGHT CYCLER analysis software. The results are presented as normalized ratio of the expression of ICAM-1 mRNA to cyclophilin A.
# [2] = test system: attachment of MDA-MB-231 carcinoma cells to human LECs; assay: In vitro human LECs attachment assay (CCL2), MDA-MB-231; details: 18 hrs.-stimulation of 10 ng/mL CCL2 vs negative control with DMEM/F12; p<0.01
# Protocol: The human LECs were plated to form a monolayer on type I collagen-coated 35 mm plates and incubated to confluence in 5% O2, 5% CO2, and 90% N2 at 37° C. The LECs were kept in serum-starved medium containing EBM-2 with 3% FBS. Selected plates were treated with 10 ng/mL CCL2 for 18 hrs. In some experiments, the plates were stimulated by the serum-starved medium pretreated with neutralization of 10 ng/mL CCL2 with 1.0 μg/mL CCL2 specific antibody.
# In some experiments, the plates were also treated with anti-human ICAM-1 antibody (available from R&D systems, US) for 30 min. after the 18 hrs. treatment with 10 ng/mL CCL2.
# The two kinds of the breast carcinoma cells such as MDA-MB-231 and MCF-7 stained with PKH26 fluorescent dye (available from SIGMA, US) were then plated at 1×10^5 cells per plate and incubated for 30 min. at 37° C. Unbound cells were removed by aspiration, and the plates were washed with EBM-2 three times. The attachment of the carcinoma cells was quantified by counting the number of cells under ×100 magnification using a Leica microscope.
# [3] = test system: ICAM-1 on human LECs; assay: Immunohistochemical expression of ICAM-1 on cultured human LECs
substance,measurement,setting,value
CCL2: chemokine CCL2,expression of ICAM-1 mRNA (ratio to cyclophilin A),"[1]; 10 ng/mL CCL2, 1 hr. after the stimulation",significantly increased
same,expression of ICAM-1 mRNA (ratio to cyclophilin A),"[1]; 10 ng/mL CCL2, around 4 hrs. after the stimulation",maximal level
same,expression of ICAM-1 mRNA (ratio to cyclophilin A),"[1]; 10 ng/mL CCL2, up to 18 hrs. after the stimulation",increased slightly
same,in vitro attachment of MDA-MB-231 to human LECs,[2],significant increase
same,intensity of the immunoreactivity for ICAM-1,"[3]; 10 ng/mL CCL2, stimulation time of 18 hrs. only",significantly increased
same,contrast-density of ICAM-1 staining (mean density/pixel),"[3]; 10 ng/mL CCL2 vs negative control, p<0.01, n=5",increases significantly
same,expression of ICAM-1 on human LECs,[3]; 4 hrs-stimulation of 10 ng/mL CCL2,marked expression
same,expression of ICAM-1 on human LECs,[3]; 18 hrs.-stimulation with 10 ng/mL chemokine,marked expression
same,expression of ICAM-1 on human LECs,"[3]; 18 hrs.-stimulation, 10 pg/mL CCL2","slight, but significant, expression"
same,expression of ICAM-1 on human LECs,"[3]; 18 hrs.-stimulation, 1 ng/mL or 10 ng/mL of CCL2",marked expression
